The source made the active and inactive calls.

In series [1] the target is Cytochrome P450 2C19 (Homo sapiens, UniProt P33261). Nature of the series: Cytochrome panel assay with activity outcomes. Panel member name: p450-cyp2c19 Compounds with AC50 equal or less than 10 uM are considered active. The format is functional.
Series [2] has as its target Cytochrome P450 2C9 (Homo sapiens, UniProt P11712).
Series [3] concerns the target T1, Sentrin-specific protease 7 (Homo sapiens, UniProt Q9BQF6).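 Also: Luminescence-based dose-response confirmation of ultra-high-throughput screening hits, measuring inhibition of SENP7.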
T1 sequence (Q9BQF6 whole entry): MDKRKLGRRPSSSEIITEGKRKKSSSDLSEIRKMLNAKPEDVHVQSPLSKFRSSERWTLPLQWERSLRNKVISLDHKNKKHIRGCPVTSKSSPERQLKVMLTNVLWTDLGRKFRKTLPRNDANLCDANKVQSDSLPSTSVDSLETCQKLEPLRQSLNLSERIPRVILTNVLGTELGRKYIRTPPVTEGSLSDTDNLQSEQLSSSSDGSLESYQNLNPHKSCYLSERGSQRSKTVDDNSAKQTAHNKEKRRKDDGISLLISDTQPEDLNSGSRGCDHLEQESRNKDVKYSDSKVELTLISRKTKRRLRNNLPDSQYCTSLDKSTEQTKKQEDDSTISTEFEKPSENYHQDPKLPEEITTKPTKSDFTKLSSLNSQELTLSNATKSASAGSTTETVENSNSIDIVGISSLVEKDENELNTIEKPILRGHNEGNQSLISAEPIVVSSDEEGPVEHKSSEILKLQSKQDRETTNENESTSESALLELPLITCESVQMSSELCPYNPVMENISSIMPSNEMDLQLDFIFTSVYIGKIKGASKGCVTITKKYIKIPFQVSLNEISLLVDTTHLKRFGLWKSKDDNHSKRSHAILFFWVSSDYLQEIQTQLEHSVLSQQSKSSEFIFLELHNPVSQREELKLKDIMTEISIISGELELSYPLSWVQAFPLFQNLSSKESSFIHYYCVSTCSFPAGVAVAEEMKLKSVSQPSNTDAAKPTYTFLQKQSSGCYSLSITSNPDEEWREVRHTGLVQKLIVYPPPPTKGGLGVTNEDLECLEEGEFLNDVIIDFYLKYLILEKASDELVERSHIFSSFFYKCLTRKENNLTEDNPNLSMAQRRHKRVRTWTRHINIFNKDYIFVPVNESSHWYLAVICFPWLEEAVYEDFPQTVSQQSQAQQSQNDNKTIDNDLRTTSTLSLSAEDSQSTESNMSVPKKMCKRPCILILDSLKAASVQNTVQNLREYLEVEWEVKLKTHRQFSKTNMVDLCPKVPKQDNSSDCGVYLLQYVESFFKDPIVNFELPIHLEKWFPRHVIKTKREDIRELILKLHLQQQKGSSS
The format is functional.

Series [4] concerns the target T2, Caspase-3 (Homo sapiens, UniProt P42574).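 Also: Dose-response selectivity test against caspase-3 for candidate inhibitors of sentrin-specific proteases (SENPs).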
T2 sequence (P42574 whole entry): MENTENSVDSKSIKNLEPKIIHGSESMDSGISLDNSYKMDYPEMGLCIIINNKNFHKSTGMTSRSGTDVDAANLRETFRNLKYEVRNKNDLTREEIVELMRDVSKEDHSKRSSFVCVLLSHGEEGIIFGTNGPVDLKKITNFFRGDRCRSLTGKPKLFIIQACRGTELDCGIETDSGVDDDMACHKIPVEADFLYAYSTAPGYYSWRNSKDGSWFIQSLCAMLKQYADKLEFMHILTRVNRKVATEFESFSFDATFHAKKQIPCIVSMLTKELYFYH
The format is functional.

For series [5], the target named is T3, Sentrin-specific protease 8 (Homo sapiens, UniProt Q96LD8).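 Also: luminescence read-out of SENP8 inhibition, dose-response confirmation following an ultra-high-throughput screen.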
T3 sequence (Q96LD8 whole entry): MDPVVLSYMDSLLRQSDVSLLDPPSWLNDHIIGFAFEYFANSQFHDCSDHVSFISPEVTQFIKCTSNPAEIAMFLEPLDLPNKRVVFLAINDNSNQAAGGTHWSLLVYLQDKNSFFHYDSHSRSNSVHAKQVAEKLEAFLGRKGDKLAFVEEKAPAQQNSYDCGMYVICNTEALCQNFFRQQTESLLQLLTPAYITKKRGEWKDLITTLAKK
The format is functional.

Series [6] deals with T4, Sentrin-specific protease 6 (Homo sapiens, UniProt Q9GZR1).
T4 sequence (Q9GZR1 whole entry): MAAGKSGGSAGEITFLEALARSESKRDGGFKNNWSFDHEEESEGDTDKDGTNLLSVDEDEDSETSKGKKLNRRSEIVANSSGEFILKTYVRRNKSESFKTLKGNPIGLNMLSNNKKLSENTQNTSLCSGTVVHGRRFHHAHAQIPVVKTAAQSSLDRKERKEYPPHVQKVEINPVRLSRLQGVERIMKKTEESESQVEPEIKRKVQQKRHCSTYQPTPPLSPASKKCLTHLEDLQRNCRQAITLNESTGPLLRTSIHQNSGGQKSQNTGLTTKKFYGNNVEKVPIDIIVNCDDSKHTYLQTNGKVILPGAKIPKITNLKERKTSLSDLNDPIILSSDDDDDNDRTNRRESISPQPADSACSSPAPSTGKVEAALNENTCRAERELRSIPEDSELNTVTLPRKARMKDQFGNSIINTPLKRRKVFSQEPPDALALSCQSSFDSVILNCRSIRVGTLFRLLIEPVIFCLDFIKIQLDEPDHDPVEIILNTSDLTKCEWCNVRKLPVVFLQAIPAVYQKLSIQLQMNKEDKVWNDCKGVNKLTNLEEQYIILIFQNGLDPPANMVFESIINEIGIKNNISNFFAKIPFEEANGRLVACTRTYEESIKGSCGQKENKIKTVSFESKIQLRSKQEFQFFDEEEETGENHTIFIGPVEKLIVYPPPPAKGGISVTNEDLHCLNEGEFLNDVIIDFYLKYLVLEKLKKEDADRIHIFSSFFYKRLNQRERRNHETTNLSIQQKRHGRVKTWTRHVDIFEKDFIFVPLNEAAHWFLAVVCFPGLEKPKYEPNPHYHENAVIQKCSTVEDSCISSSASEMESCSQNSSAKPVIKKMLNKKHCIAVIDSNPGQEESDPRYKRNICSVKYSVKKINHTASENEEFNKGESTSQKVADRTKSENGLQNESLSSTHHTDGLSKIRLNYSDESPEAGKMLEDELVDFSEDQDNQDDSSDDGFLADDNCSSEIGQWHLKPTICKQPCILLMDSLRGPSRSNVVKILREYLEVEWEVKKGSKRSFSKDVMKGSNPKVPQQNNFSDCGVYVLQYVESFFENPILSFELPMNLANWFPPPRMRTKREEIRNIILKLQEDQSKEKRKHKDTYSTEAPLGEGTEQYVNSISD
Format: functional.

For series [7], the target named is T5, Cytochrome P450 1A2 (Homo sapiens, UniProt P05177).
T5 sequence (P05177 whole entry): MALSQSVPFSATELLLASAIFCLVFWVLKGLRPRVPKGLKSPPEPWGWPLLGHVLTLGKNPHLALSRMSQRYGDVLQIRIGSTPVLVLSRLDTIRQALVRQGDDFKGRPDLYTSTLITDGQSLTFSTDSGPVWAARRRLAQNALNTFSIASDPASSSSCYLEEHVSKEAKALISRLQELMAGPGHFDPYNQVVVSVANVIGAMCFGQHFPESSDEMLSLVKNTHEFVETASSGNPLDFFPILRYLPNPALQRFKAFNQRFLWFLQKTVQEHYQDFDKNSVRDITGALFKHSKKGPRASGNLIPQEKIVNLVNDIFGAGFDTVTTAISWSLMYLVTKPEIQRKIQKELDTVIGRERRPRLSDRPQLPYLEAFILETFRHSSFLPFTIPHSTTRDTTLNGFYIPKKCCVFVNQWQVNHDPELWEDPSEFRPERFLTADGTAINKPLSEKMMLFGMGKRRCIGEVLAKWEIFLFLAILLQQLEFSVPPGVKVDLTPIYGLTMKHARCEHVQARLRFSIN

The test system of series [8] is H4. Nature of the series: Luminescence Cell-Based Dose Response HTS to Identify Activators of 5'UTR Stem-Loop Driven Prion Protein mRNA Translation in H4 Neuroglioblastoma Cells. [Related pubchem assays: 1829 (Project Summary), 1814 (Primary HTS)]. Format: functional. The following applies: Homo sapiens.
Series [9] deals with T6, Nucleotide-binding oligomerization domain-containing protein 1 (Homo sapiens, UniProt Q9Y239).
T6 sequence (Q9Y239 whole entry): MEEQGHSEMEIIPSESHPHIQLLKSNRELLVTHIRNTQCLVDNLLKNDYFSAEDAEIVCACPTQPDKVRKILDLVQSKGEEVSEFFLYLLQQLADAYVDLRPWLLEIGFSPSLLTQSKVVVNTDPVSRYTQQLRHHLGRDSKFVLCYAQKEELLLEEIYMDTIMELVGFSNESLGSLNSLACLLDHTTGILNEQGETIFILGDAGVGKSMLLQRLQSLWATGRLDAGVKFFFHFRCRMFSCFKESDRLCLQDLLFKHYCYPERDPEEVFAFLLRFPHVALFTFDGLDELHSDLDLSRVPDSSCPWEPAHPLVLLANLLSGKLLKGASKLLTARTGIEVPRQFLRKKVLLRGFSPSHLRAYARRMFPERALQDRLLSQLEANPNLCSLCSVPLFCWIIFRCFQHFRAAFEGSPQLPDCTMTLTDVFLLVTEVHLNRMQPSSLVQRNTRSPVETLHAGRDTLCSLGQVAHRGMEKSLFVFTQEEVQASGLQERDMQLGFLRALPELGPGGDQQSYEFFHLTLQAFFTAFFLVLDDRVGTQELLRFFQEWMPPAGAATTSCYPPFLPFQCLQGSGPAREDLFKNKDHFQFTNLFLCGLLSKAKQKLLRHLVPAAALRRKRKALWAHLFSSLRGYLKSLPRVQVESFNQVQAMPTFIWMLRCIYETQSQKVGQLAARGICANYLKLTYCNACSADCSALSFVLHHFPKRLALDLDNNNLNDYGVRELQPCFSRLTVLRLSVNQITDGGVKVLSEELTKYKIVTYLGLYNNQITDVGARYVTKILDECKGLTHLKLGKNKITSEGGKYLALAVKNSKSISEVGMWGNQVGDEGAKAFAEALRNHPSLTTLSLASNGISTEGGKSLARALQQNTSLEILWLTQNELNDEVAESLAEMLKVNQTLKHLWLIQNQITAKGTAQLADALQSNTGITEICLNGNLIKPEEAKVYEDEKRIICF
In words: NOD1 signaling inhibitors, SAR follow-up, revised (AID 2333). The format is functional.

For series [10], the target named is Tumor necrosis factor (Homo sapiens, UniProt P01375). Nature of the series: TNFa-triggered NF-kB activation inhibitors, SAR follow-up, cell-based, revised (AID 2337). The format is functional.
Series [11] has as its system HEK293. In words: cells. The following applies: Homo sapiens.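 Also: cells exposed to compound for 14 hours overnight before viability readout.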
The nature of series [12]: HEp-2 cell cytotoxicity, dose response, cytotoxicity control for RSV inhibitor project, HTS (AID 2410). The following applies: human respiratory syncytial virus. Format: functional.
Series [13] deals with BJ. Nature of the series: cytotoxicity toward Ras-transformed BJeLR fibroblasts, dose response, cell-based, alamar blue fluorescence, cherrypicked samples (AID 2631).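 Also: confirmatory dose-response assay in RAS-dependent BJ fibroblasts engineered with TERT, LT and ST, with cytotoxicity read by fluorescence.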 The format is functional. The following applies: Homo sapiens. A general note: Resazurin is reduced to fluorescent resorufin, in cell work by metabolically active cells.
The nature of series [14]: cytotoxicity toward DRD oncogenic fibroblasts, dose response, cell-based, non-viral oncogenic, luminescence (AID 1934). The format is functional. To be noted: Homo sapiens.
The subject of series [15] is BJ. Nature of the series: cytotoxicity toward BJ-TERT-LT-ST fibroblasts, dose response, cell-based, RAS-independent, luminescence (AID 1935).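 Also: BJ fibroblasts immortalized with TERT plus LT and ST oncogenes.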 The following applies: Homo sapiens. The format is functional.
Series [16] deals with BJ. Nature of the series: cytotoxicity toward BJ-TERT fibroblasts, dose response, cell-based, RAS-independent, luminescence (AID 1933). Format: functional. To be noted: Homo sapiens.
Series [17] deals with BJ. In words: cells. The format is functional, cell-based. The following applies: Homo sapiens.
Series [18] concerns the target Cytochrome P450 3A4 (Homo sapiens, UniProt P08684).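 Also: CYP3A4 tested as one member of a cytochrome P450 panel screen.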
Series [19] can be described thus: Luminescence Cell-Based Dose Retest to Confirm Inhibitors of Cancer Stem Cells. [Related pubchem assays (depositor defined):AID2717, AID2721]. Format: functional. The following applies: Homo sapiens.

Cytochrome P450 2C9, sequence (P11712 whole entry): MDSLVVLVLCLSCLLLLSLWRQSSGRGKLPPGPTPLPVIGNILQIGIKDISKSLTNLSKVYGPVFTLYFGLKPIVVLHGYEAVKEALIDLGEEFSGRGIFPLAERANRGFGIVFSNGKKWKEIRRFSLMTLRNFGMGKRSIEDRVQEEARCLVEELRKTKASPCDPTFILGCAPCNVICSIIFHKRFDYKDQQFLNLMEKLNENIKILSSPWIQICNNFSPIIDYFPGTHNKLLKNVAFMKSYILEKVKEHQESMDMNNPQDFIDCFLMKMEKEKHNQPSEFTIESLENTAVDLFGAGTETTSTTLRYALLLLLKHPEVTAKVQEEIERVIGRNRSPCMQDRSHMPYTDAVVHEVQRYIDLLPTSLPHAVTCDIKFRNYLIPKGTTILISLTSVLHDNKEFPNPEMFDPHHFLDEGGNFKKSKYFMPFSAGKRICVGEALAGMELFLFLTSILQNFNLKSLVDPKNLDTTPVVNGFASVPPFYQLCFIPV
Cytochrome P450 2C19, sequence (P33261 whole entry): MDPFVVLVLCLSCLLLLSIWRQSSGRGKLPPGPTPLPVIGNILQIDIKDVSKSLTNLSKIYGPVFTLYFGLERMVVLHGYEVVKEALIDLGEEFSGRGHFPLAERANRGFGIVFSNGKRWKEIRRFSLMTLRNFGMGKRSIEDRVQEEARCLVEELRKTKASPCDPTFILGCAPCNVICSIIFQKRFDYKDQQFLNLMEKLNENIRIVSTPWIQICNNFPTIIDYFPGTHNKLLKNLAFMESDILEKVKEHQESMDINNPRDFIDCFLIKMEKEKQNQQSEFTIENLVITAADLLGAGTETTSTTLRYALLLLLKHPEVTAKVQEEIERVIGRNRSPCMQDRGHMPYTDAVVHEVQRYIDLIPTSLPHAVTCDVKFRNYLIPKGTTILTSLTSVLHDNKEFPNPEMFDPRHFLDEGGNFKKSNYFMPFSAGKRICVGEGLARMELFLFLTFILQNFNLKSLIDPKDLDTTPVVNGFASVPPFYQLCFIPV
Tumor necrosis factor, sequence (P01375 whole entry): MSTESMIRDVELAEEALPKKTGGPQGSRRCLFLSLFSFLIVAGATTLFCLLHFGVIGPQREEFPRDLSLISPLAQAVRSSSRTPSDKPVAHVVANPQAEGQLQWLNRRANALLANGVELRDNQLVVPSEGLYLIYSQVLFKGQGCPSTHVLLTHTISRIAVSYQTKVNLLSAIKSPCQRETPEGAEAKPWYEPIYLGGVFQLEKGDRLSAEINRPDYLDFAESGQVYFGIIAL
Cytochrome P450 3A4, sequence (P08684 whole entry): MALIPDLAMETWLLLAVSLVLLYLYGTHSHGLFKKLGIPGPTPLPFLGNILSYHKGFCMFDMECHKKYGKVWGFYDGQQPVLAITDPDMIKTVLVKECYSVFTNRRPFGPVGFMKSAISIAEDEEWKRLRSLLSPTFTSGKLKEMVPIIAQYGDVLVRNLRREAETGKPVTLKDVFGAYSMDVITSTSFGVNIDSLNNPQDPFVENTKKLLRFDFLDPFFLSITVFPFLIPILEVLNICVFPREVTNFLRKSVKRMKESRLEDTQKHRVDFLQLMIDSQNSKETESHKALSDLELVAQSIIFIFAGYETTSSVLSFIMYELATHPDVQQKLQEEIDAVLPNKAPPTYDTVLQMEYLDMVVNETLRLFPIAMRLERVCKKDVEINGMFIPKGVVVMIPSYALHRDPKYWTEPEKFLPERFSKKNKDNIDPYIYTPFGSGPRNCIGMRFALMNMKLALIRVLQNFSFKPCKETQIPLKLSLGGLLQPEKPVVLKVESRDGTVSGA

For orientation: AC50 means the midpoint of the concentration-response curve, whichever way the signal moves. Consider `Cc1cc(C(=O)O)c(O)nc1C`, for which the AC50 entry in series [1] and in series [2] was “inconclusive” in each case.

Broadly, the IC50 is the concentration that gives 50% inhibition. In the case of `COc1ccc(NC(=O)c2cccc(Oc3ccccc3)c2)cn1`, the IC50 in series [3] was 4.98 µM (active); in series [4], 17.5 µM (active); in series [5] it was 16.4 µM (active); in [6], 15.6 µM (active).

`Cc1cccc(NC(=O)COc2ccc(Br)cc2C)n1`: the IC50 was 4.31 µM (active) in series [3], 13.9 µM (active) in series [4], > 100 µM (inactive) in series [5] and 9.12 µM (active) in series [6].

Turning to `COc1ccc(OC)c2nc(O)c(CCNC(=O)C3CCCCC3)cc12`, the AC50 is 20 µM (inconclusive) in series [7] and “inconclusive” in series [2].

By EC50 is commonly meant the concentration needed to bring the measured effect to its halfway point. For the compound `Cn1c(C(=O)Nc2ccc3c(c2)OCO3)cc2sccc21`, the 50% inhibitory concentration (IC50) is 4.52 µM (active) in series [3], 14.4 µM (active) in [4], 19.5 µM (active) in series [5] and 16.1 µM (active) in series [6]. For the same compound, the EC50 in series [8] is 35 µM (active).

Take `CSc1ccc(NC(=O)c2ccc(CN3CCc4ccccc43)cc2)cc1`: the IC50 in series [9], in [10] and in series [11] was > 20 µM (inactive) throughout.

Take `N#Cc1cccc(NC(=O)CSc2nc3scc(-c4ccccc4)c3c(=O)[nH]2)c1`: the IC50 in [9], in [10] and in [11] was > 20 µM (inactive) each time.

Usually CC50 stands for the concentration that lowers cell viability or growth by half. In the case of `S=C(N/N=C/c1ccc2ncccc2c1)Nc1ccccc1`, in series [12], the CC50 is 31.2 µM (active). The EC50 was > 133 µM (inactive) in series [13]; 14.3 µM (active) in [14]; > 150 µM (inconclusive) in series [15]; 27.7 µM (active) in series [16]; 10.7 µM (active) in [17].

For `Nc1cc(Cl)nc(N/N=C/c2c(O)ccc3ccccc23)n1`, the half-maximal inhibitory concentration (IC50) in series [3] is 5.83 µM (active); in [4], 48 µM (active); in series [5], > 100 µM (inactive); in series [6] it was > 100 µM (inactive).

With `COc1cccc(/C=N/NC(=O)CSc2nnc(C)n2-c2ccccc2)c1O`, the AC50 is 35.5 µM (inconclusive) in [7]; 4.47 µM (inconclusive) in series [18]; 11.9 µM (active) in series [19]; 31.6 µM (inconclusive) in series [1] (read-out: AC50); “inconclusive” in series [2].

Consider `NS(=O)(=O)c1cc(Cl)c(Cl)c(S(N)(=O)=O)c1` [DICHLORPHENAMIDE], for which the AC50 result in [2] is “inconclusive”.

Values taken from ChEMBL document CHEMBL1201862, “PubChem BioAssay data set” (2004).
